Experimental data taken from patent publication US20080261977A1, “Pyrimidine Derivatives as Cannabinoid Receptor Modulators” (priority 2004, published 2008).
Where a name gives a salt, the structure may show the parent alone. Read-outs that look alike come from different tables or passages of the source.

Assays:
[1] = molecular target: T1, human cannabinoid CB1 receptor (Homo sapiens, UniProt P21554); assay: Cannabinoid CB1 receptor agonist activity, yeast (Saccharomyces cerevisiae) cells expressing the receptor, FDGlu fluorescence; assay type: cell-based; conditions: for Emax: read-out: efficacy (Emax relative to HU210) at the cloned human CB1 receptor
T1 construct: expressed in transfected cells; host or cells: Saccharomyces cerevisiae strain MMY23 (cassette integrated at the ura3 locus; chimeric Gpa1/Gαi3)
T1 sequence (P21554 whole entry): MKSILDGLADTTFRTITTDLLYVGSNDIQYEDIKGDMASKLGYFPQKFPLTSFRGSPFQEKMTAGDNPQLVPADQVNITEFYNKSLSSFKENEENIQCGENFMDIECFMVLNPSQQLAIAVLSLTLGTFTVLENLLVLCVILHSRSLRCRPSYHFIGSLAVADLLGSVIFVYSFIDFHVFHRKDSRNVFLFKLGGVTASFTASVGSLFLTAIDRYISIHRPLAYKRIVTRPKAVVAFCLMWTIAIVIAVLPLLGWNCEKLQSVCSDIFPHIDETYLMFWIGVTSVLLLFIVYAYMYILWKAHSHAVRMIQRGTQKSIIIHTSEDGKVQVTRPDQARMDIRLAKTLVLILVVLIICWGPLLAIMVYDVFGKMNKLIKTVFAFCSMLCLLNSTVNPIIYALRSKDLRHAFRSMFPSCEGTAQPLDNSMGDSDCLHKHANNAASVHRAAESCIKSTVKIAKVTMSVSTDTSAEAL
Protocol: The cannabinoid CB1 receptor agonist activity of the compounds of formula (I) was determined in accordance with the following experimental method.
Yeast (Saccharomyces cerevisiae) cells expressing the human cannabinoid CB1 receptor were generated by integration of an expression cassette into the ura3 chromosomal locus of yeast strain MMY23. This cassette consisted of DNA sequence encoding the human CB1 receptor flanked by the yeast GPD promoter to the 5′ end of CB 1 and a yeast transcriptional terminator sequence to the 3′ end of CB1. MMY23 expresses a yeast/mammalian chimeric G-protein alpha subunit in which the C-terminal 5 amino acids of Gpal are replaced with the C-terminal 5 amino acids of human Gαi3 (as described in Brown et al. (2000), Yeast 16:11-22). Cells were grown at 30° C. in liquid Synthetic Complete (SC) yeast media (Guthrie and Fink (1991), Methods in Enzymology, Vol. 194) lacking uracil, tryptophan, adenine and leucine to late logarithmic phase (approximately 6 OD600/ml).
Agonists were prepared as 10 mM stocks in DMSO. EC50 values (the concentration required to produce 50% maximal response) were estimated using dilutions of between 3- and 5-fold (BiomekFX, Beckman) into DMSO. Agonist solutions in DMSO (1% final assay volume) were transferred into black, clear bottom, microtitre plates from NUNC (96- or 384-well). Cells were suspended at a density of 0.2 OD600/ml in SC media lacking histidine, uracil, tryptophan, adenine and leucine and supplemented with 10 mM 3-aminotriazole, 0.1M sodium phosphate pH 7.0, and 20 μM fluorescein di-β-D-glucopyranoside (FDGlu). This mixture (50 ul per well for 384-well plates, 200 ul per well for 96-well plates) was added to agonist in the assay plates (Multidrop 384, Labsystems). After incubation at 30° C. for 24 hours, fluorescence resulting from degradation of FDGlu to fluorescein due to exoglucanase, an endogenous yeast enzyme produced during agonist-stimulated cell growth, was determined using a Spectrofluor microtitre plate reader (Tecan; excitation wavelength: 485 nm; emission wavelength: 535 nm). Fluorescence was plotted against compound concentration and iteratively curve fitted using a four parameter fit to generate a concentration effect value. Efficacy (Emax) was calculated from the equation […]
where Max[compound X] and Min[compound X] are the fitted maximum and minimum respectively from the concentration effect curve for compound X, and Max[HU210] and Min[HU210] are the fitted maximum and minimum respectively from the concentration effect curve for (6aR,10aR)-3-(1,1′-Dimethylheptyl)-6a,7,10,10a-tetrahydro-1 hydroxy-6,6-dimethyl-6H-dibenzo[b,d]pyran-9-methanol (HU210; available from Tocris). Equieffective molar ratio (EMR) values were calculated from the equation […]

[2] = molecular target: T2, human cannabinoid CB2 receptor (Homo sapiens, UniProt P34972); assay: Cannabinoid CB2 receptor agonist activity, yeast (Saccharomyces cerevisiae) cells expressing the receptor, FDGlu fluorescence; assay type: cell-based; conditions: for Emax: read-out: efficacy (Emax relative to HU210) at the cloned human cannabinoid CB2 receptor
T2 construct: expressed in transfected cells; host or cells: Saccharomyces cerevisiae strain MMY23 (cassette integrated at the ura3 locus; chimeric Gpa1/Gαi3)
T2 sequence (P34972 whole entry): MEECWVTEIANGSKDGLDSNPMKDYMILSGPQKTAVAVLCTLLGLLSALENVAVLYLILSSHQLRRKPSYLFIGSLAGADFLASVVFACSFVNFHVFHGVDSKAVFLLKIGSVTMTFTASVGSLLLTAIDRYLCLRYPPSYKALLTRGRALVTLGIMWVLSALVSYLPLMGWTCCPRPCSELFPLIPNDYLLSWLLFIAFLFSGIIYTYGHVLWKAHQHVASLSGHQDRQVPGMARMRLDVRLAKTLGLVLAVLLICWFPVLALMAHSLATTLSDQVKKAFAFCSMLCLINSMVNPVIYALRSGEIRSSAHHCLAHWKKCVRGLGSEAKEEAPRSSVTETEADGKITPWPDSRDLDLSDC
Outline: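 S. cerevisiae MMY23 expressing human CB2 with a Gpa1/Gαi3 chimeric G-protein were incubated 24 h at 30° C with agonist in selective medium containing 3-aminotriazole and FDGlu, pH 7.0. Growth-linked fluorescein fluorescence (485/535 nm) gave EC50 by four-parameter fit; Emax and EMR expressed relative to HU210.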

Compound CC(NCC1CCOCC1)c1cnc(Nc2ccc(Cl)cc2Cl)nc1C(F)(F)F (centres unmarked) [Example 91, (2,4-Dichlorophenyl)-(5-{1-[(tetrahydro-pyran-4-ylmethyl)-amino]-ethyl}-4-trifluoromethyl-pyrimidin-2-yl)-amine] has an EC50 [1] of 300 to 1000 nM, an Emax [1] of 50 to 100% and an EC50 [2] of less than 300 nM. It also gave an Emax [2] greater than 50%.
CC(NCC1CCCCC1)c1cnc(Nc2cccc(Cl)c2)nc1C(F)(F)F (centres unmarked) [Example 89, (3-Chlorophenyl)-{5-[1-(cyclohexylmethyl-amino)-ethyl]-4-trifluoromethyl-pyrimidin-2-yl}-amine, formate] was tested, and the Emax [1] was 50 to 100%, the EC50 ([1]; yeast agonist assay, read-out: EC50 at the cloned human CB1 receptor) was 300 to 1000 nM and the EC50 ([2]; yeast agonist assay, read-out: EC50 at the cloned human cannabinoid CB2 receptor) was less than 300 nM. The Emax ([2]; yeast agonist assay) was greater than 50%.
